Measurements from ChEMBL document CHEMBL4190189, “Exploring Jolkinol D Derivatives To Overcome Multidrug Resistance in Cancer” (J Nat Prod, 2017).
pIC50: −log10 of the molar value. Values belong to the compound of their own block, whether it stands above or below them. Active and inactive are the calls of the source. No cut-off for these calls is given here.

Columns and labels:
[1] = Induction of apoptosis in human EPG85-257P cells assessed as caspase-3 activation at 30 uM after 72 hrs by flow cytometric method relative to control; format: cell-based
L5178Y [2] = test: Cytotoxicity against mouse L5178Y cells assessed as reduction in cell viability after 72 hrs by MTT assay; format: cell-based
Homo sapiens [3] = species on record: Homo sapiens; test: (§1) Induction of apoptosis in human EPG85-257RNOV cells at 30 uM after 72 hrs by annexin-V/propidium iodide staining based flow cytometric method relative to control; format: functional
[4] = biological target: T1, ATP-dependent translocase ABCB1 (Homo sapiens, UniProt P08183); test: Modulation of human ABCB1 expressed in mouse L5178Y cells assessed as fluorescence activity ratio at 2 uM pretreated for 10 mins followed by rhodamine-123 addition measured after 20 mins by flow cytometry (reference value: 0.87); format: cell-based
T1 sequence (P08183 whole entry): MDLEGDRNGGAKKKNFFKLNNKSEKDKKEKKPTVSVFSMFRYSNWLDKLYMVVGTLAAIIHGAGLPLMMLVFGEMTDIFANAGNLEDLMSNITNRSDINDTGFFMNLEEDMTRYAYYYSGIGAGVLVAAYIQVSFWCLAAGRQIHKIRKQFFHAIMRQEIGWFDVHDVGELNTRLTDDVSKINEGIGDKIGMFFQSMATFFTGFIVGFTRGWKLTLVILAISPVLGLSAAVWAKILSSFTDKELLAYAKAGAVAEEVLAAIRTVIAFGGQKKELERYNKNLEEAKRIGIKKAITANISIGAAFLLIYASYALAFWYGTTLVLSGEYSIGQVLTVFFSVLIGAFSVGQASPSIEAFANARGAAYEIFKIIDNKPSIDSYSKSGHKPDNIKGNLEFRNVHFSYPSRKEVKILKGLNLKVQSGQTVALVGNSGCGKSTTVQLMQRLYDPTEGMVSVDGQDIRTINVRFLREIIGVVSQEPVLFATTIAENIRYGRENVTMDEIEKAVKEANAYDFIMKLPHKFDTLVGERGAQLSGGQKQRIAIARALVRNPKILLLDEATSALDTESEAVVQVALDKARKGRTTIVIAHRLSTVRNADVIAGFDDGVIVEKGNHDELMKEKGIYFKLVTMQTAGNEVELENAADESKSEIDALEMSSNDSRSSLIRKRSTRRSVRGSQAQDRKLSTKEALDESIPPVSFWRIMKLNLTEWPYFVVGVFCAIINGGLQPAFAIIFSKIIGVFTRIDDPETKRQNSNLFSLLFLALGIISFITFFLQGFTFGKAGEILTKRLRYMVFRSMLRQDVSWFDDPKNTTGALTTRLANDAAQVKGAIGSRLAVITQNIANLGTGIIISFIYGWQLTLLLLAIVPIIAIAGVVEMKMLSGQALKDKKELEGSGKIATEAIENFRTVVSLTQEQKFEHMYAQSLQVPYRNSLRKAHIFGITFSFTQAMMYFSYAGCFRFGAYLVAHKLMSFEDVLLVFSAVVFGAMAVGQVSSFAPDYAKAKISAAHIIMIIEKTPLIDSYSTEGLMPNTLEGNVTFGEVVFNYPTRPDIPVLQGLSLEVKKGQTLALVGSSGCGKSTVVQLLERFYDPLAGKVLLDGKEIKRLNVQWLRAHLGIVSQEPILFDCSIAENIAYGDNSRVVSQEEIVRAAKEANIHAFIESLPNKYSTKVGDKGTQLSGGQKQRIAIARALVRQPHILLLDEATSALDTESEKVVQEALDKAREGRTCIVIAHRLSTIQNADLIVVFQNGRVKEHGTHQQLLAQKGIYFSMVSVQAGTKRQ

L5178Y [5] = test: Cytotoxicity against mouse L5178Y cells transfected with human ABCB1 assessed as reduction in cell viability after 72 hrs by MTT assay; format: functional, cell-based
Homo sapiens [6] = species on record: Homo sapiens; test: (§2) Induction of apoptosis in human EPG85-257RNOV cells assessed as caspase-3 activation at 30 uM after 72 hrs by flow cytometric method relative to control; format: functional
[7] = Cytotoxicity against human EPG85-257RDB cells assessed as reduction in cell viability after 5 days by SRB assay; format: functional, cell-based; details: 120 h
[8] = biological target: T1, ATP-dependent translocase ABCB1; test: Inhibition of human ABCB1 expressed in mouse L5178Y cells assessed as potentiation of doxorubicin-induced cytotoxicity by measuring combination index at 18:1 compound to doxorubicin ratio after 48 hrs by MTT assay; format: cell-based
[9] = Induction of apoptosis in human EPG85-257P cells at 30 uM after 72 hrs by annexin-V/propidium iodide staining based flow cytometric method relative to control; format: cell-based
[10] = Resistance ratio of IC50 for human EPG85-257P cells to IC50 for human EPG85-257RDB cells; format: functional
Homo sapiens [11] = species on record: Homo sapiens; test: (§3) Induction of apoptosis in human EPG85-257RDB cells at 30 uM after 72 hrs by annexin-V/propidium iodide staining based flow cytometric method relative to control; format: functional
Homo sapiens [12] = species on record: Homo sapiens; test: (§4) Induction of apoptosis in human EPG85-257RDB cells assessed as caspase-3 activation at 30 uM after 72 hrs by flow cytometric method relative to control; format: functional
[13] = biological target: T1, ATP-dependent translocase ABCB1; test: Modulation of human ABCB1 expressed in mouse L5178Y cells assessed as fluorescence activity ratio at 20 uM pretreated for 10 mins followed by rhodamine-123 addition measured after 20 mins by flow cytometry (reference value: 0.87); format: cell-based
[14] = Cytotoxicity against human EPG85-257P cells assessed as reduction in cell viability after 5 days by SRB assay; format: cell-based; details: 120 h
[15] = Cytotoxicity against human EPG85-257RNOV cells assessed as reduction in cell viability after 5 days by SRB assay; format: functional, cell-based; details: 120 h
[16] = biological target: T2, ABCB1 (P-glycoprotein) ATPase (Homo sapiens, UniProt P08183); test: Inhibition of human ABCB1 ATPase activity expressed in Sf9 insect cell membranes assessed as reduction in verapamil-stimulated vanadate-sensitive ATPase activity at 3.13 to […] uM measured after 10 mins by colorimetric method relative to control; details: Sf9 insect cell membranes expressing human ABCB1, probe verapamil (ATPase stimulator)
T2 sequence (P08183 whole entry): as above

[17] = biological target: T2, ABCB1 (P-glycoprotein) ATPase; test: Inhibition of human ABCB1 ATPase activity expressed in Sf9 insect cell membranes assessed as reduction in verapamil-stimulated vanadate-sensitive ATPase activity at 25 to 100 uM measured after 10 mins by colorimetric method relative to control; details: Sf9 insect cell membranes expressing human ABCB1, probe verapamil (ATPase stimulator)
[18] = biological target: T1, ATP-dependent translocase ABCB1; test: Activation of human ABCB1 ATPase activity expressed in Sf9 insect cell membranes assessed as increase in vanadate-sensitive basal ATPase activity at 0.78 to 100 uM measured after 10 mins by colorimetric method relative to control
[19] = biological target: T1, ATP-dependent translocase ABCB1; test: Inhibition of human ABCB1 expressed in mouse L5178Y cells assessed as potentiation of doxorubicin-induced cytotoxicity by measuring combination index at 5:1 compound to doxorubicin ratio after 48 hrs by MTT assay; format: cell-based
[20] = Induction of apoptosis in human EPP85-181RNOV cells at 30 uM after 72 hrs by annexin-V/propidium iodide staining based flow cytometric method relative to control; format: functional
[21] = as §1; format: functional
[22] = as §2; format: functional
[23] = Induction of apoptosis in human EPP85-181RDB cells at 30 uM after 72 hrs by annexin-V/propidium iodide staining based flow cytometric method relative to control; format: functional
[24] = as §3; format: functional
[25] = Induction of apoptosis in human EPP85-181RNOV cells assessed as caspase-3 activation at 30 uM after 72 hrs by flow cytometric method relative to control; format: functional
[26] = as §4; format: functional
[27] = biological target: T2, ABCB1 (P-glycoprotein) ATPase; test: Inhibition of human ABCB1 ATPase activity expressed in Sf9 insect cell membranes assessed as reduction in verapamil-stimulated vanadate-sensitive ATPase activity at 1.56 to 25 uM measured after 10 mins by colorimetric method relative to control; details: Sf9 insect cell membranes expressing human ABCB1, probe verapamil (ATPase stimulator)
[28] = biological target: T1, ATP-dependent translocase ABCB1; test: Inhibition of human ABCB1 expressed in mouse L5178Y cells assessed as potentiation of doxorubicin-induced cytotoxicity by measuring combination index at 10:1 compound to doxorubicin ratio after 48 hrs by MTT assay; format: cell-based
[29] = biological target: T1, ATP-dependent translocase ABCB1; test: Inhibition of human ABCB1 ATPase activity expressed in Sf9 insect cell membranes assessed as reduction in verapamil-stimulated vanadate-sensitive ATPase activity at 50 to 100 uM measured after 10 mins by colorimetric method
[30] = biological target: T1, ATP-dependent translocase ABCB1; test: Inhibition of human ABCB1 expressed in mouse L5178Y cells assessed as potentiation of doxorubicin-induced cytotoxicity by measuring combination index at 25:1 compound to doxorubicin ratio after 48 hrs by MTT assay; format: cell-based
[31] = biological target: T1, ATP-dependent translocase ABCB1; test: Inhibition of human ABCB1 expressed in mouse L5178Y cells assessed as potentiation of doxorubicin-induced cytotoxicity by measuring combination index at 400:1 compound to doxorubicin ratio after 48 hrs by MTT assay; format: cell-based
[32] = Resistance ratio of IC50 for human EPP85-181P cells to IC50 for human EPP85-181RDB cells; format: functional
[33] = Resistance ratio of IC50 for human EPP85-181P cells to IC50 for human EPP85-181RNOV cells; format: functional

SMILES: CC(=O)O[C@]12C[C@H](C)[C@H](OC(=O)Oc3ccccc3)[C@@H]1/C=C(/C)CC[C@H]1[C@@H](/C=C(\C)C2=O)C1(C)C
Activity ([1]; 72 h, 30 µM): Toxic
pIC50 (L5178Y [2]): < 4.72
Activity (Homo sapiens [3]): Active
Ratio [4]: 10.8
pIC50 (L5178Y [5]): < 4.72
Activity (Homo sapiens [6]): Active
pIC50 [7]: 5.63
CI [8]: 0.5
Activity [9]: Toxic
Ratio IC50 [10]: 0.4
Activity (Homo sapiens [11]): Active
Activity (Homo sapiens [12]): Active
Ratio [13]: 19.5
pIC50 [14]: 5.20
pIC50 [15]: 5.26

SMILES: CC(=O)O[C@]12C[C@H](C)[C@H](O)[C@@H]1/C=C(\C)CC[C@H]1[C@@H](/C=C(\C)C2=O)C1(C)C [JOLKINOL D]
inhibition at 10 min [16]: 14 to 40%
inhibition at 10 min [17]: 9 to 33%
Activity [18]: 66 to 87%

SMILES: CC(=O)O[C@]12C[C@H](C)[C@H](OC(=O)c3cccc(C(F)(F)F)c3)[C@@H]1/C=C(/C)CC[C@H]1[C@@H](/C=C(\C)C2=O)C1(C)C
fold change (FC) [20]: 4.5
fold induction at 72 h, 30 µM ([1]; EPG85-257P cells, read-out: FC): 6 to 9
fold change (FC) [21]: 4
fold change (FC) [22]: 6 - 9
fold change (FC) [9]: 4
fold change (FC) [23]: 3.5
fold change (FC) [24]: 6
fold change (FC) [25]: 12
fold change (FC) [26]: 6 - 9

SMILES: CC(=O)O[C@]12C[C@H](C)[C@H](OC(=O)c3ccc4ccccc4c3)[C@@H]1/C=C(/C)CC[C@H]1[C@@H](/C=C(\C)C2=O)C1(C)C
pIC50 (L5178Y [2]): < 4.72
Ratio [4]: 11.9
pIC50 (L5178Y [5]): < 4.72
CI [31]: 0.06
Ratio [13]: 31.9

Further lines, with some results ahead:

Ratio [4]: 3.1
Ratio [13]: 18.7
SMILES: CCOC(=O)O[C@H]1[C@@H](C)C[C@]2(OC(C)=O)C(=O)/C(C)=C/[C@@H]3[C@H](CC/C(C)=C\[C@@H]12)C3(C)C
CI [19]: 1.22
pIC50 (L5178Y [2]): < 4.72
pIC50 (L5178Y [5]): < 4.72
Ratio IC50 [10]: 0.4
pIC50 [15]: > 5.00

Ratio [4]: 33.3
inhibition at 10 min [27]: 100%
inhibition (INH) [29]: Active
Ratio [13]: 39.6
SMILES: COc1ccccc1C(=O)O[C@H]1[C@@H](C)C[C@]2(OC(C)=O)C(=O)/C(C)=C/[C@@H]3[C@H](CC/C(C)=C\[C@@H]12)C3(C)C
pIC50 (L5178Y [2]): < 4.72
pIC50 (L5178Y [5]): < 4.72
Ratio IC50 [10]: 0.2
CI [28]: 0.09

Ratio [4]: 26.1
Ratio [13]: 36.4
SMILES: COc1cccc(C(=O)O[C@H]2[C@@H](C)C[C@]3(OC(C)=O)C(=O)/C(C)=C/[C@@H]4[C@H](CC/C(C)=C\[C@@H]23)C4(C)C)c1
pIC50 (L5178Y [2]): < 4.72
pIC50 (L5178Y [5]): < 4.72
Ratio IC50 [10]: 0.3
CI [30]: 0.84

Ratio [4]: 4.8
Ratio [13]: 19
SMILES: C/C1=C/[C@H]2[C@@H](OC(=O)c3ccc(-c4ccccc4)cc3)[C@@H](C)C[C@]2(O)C(=O)/C(C)=C/[C@@H]2[C@H](CC1)C2(C)C
pIC50 (L5178Y [2]): < 4.72
Ratio IC50 [32]: 0.4
pIC50 (L5178Y [5]): < 4.10
Ratio IC50 [33]: 0.4
